Assay results reported in patent publication US20100004289A1, “SUBSTITUTED BUTYROPHENONE DERIVATIVES” (priority 2005, published 2010).
Values joined by “and” are separate entries in the source; they are usually repeats but may differ in a detail not shown here. Equal values may be shown once.

Experiments:
[1] = molecular target: rat brain or human brain dopamine D2 receptor; details: read-out: affinity (dissociation constant) of dopamine at the high-affinity state of D2; cited from earlier work
[2] = molecular target: sigma receptor (rat striatal tissue) (Rattus norvegicus, UniProt Q9R0C9); test: biochemical
Chain of sigma receptor (rat striatal tissue) (Q9R0C9 whole entry): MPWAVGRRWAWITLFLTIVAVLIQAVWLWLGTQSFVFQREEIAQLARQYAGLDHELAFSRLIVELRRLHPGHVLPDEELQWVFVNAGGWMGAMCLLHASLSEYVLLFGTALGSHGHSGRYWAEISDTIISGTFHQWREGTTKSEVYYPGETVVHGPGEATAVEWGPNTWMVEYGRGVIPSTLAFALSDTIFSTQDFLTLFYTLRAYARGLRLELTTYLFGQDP
Protocol: (§2) Rat brains were purchased from Pel-Freez (Rogers, Ark.) and stored at −70° C. […] Before each experiment, the striatum or the frontal cerebral cortex (free of myelin) was dissected from the partly thawed rat brain on a glass plate on a bed of dry ice. The dissected tissue was suspended in buffer (50 mM Tris-HCl, pH 7.4 at 20° C., 1 mM EDTA, 5 mM KCl, 120 mM NaCl, 1.5 mM CaCl2, 4 mM MgCl2) at 4 mg original wet weight per ml suspension.
(§3) The competition between a compound and a [^3H]ligand for binding at the various receptors was done as follows. Each incubation tube (12×75 mm glass) received, in the following order, 0.5 ml buffer (50 mM Tris-HCl, pH 7.4 at 20° C., 1 mM EDTA, 5 mM KCl, 120 mM NaCl, 1.5 mM CaCl2, 4 mM MgCl2) containing a range of drug concentrations (final concentrations of 0.01 nM to 1,000 nM) or an excess of a second drug in order to define nonspecific binding, followed by the addition of 0.25 ml [^3H]ligand, and 0.25 ml of homogenized tissue suspension. […] After filtering the incubate, the filter mat was rinsed with buffer for 15 s (7.5 ml buffer). The filters were pushed out and placed in scintillation minivials (Packard Instruments, Chicago, Ill.).
(§4) Competition at the muscarinic receptors was done using either the cloned M1 receptors or the rat frontal cortex, 0.6 nM [^3H]QNB, and using 200 nM atropine to define nonspecific binding. […]

[3] = molecular target: T1, HERG channel receptor (Rattus norvegicus, UniProt O08962); test: Competitive binding at HERG channel ([3H]dofetilide)
T1 sequence (O08962 1-1163): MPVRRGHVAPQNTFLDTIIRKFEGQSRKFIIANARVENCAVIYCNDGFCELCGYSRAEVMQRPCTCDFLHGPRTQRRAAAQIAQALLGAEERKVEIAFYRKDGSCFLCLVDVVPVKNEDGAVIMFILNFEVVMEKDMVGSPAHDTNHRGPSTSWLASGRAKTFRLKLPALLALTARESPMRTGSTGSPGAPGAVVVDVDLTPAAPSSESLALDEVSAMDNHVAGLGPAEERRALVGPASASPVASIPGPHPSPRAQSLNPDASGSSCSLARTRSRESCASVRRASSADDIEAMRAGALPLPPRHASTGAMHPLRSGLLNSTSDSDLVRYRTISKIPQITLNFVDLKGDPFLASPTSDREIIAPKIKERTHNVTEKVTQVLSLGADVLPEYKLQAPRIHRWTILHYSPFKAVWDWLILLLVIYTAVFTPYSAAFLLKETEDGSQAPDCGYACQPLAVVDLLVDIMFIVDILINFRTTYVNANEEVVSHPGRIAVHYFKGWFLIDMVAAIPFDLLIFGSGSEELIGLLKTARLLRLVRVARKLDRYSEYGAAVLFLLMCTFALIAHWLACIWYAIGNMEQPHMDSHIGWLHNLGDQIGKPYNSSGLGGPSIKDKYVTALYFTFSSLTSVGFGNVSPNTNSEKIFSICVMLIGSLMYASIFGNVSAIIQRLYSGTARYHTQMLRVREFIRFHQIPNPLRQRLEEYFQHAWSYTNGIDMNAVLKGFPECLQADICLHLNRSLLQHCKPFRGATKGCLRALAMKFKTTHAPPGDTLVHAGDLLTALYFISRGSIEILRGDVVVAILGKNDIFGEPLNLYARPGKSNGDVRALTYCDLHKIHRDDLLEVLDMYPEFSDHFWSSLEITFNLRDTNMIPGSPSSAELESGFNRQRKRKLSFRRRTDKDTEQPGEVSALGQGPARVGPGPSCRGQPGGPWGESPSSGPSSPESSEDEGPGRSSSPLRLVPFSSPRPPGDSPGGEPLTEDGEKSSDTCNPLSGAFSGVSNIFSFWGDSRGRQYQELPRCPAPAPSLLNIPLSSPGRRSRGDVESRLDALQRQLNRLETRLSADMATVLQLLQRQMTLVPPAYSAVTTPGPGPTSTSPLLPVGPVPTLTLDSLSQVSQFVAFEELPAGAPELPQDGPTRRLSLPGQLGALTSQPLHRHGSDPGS
Protocol: as §3

[4] = molecular target: T2, dopamine D1 receptor (rat striatal tissue) (Rattus norvegicus, UniProt P18901); test: Competitive binding at dopamine D1 receptor ([3H]SCH23390), rat tissue; details: read-out: dissociation constant at dopamine D1 receptor
T2 construct: tissue Pel-Freez (Rogers, Ark.); host or cells: rat brain striatum
T2 sequence (P18901 whole entry): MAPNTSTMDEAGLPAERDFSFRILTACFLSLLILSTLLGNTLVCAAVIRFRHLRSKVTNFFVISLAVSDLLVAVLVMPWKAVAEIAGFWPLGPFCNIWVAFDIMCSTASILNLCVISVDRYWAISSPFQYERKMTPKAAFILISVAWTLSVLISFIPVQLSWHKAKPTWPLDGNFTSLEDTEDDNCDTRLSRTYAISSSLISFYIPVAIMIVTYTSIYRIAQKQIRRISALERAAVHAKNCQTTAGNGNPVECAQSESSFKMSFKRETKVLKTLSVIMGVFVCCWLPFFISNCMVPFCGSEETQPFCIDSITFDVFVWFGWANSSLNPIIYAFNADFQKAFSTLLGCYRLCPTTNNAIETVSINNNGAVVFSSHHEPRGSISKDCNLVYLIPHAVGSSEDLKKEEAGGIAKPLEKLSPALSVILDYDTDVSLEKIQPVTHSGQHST
Protocol: as §2, §3, §4

[5] = molecular target: T3, cloned dopamine D2 receptor (Homo sapiens, UniProt P14416); test: Dissociation from the cloned dopamine D2 receptor; type: binding
T3 construct: purchased Research Biochemicals International (Natick, Mass.); host or cells: Sf9 cells or CHO cells
T3 sequence (P14416 whole entry): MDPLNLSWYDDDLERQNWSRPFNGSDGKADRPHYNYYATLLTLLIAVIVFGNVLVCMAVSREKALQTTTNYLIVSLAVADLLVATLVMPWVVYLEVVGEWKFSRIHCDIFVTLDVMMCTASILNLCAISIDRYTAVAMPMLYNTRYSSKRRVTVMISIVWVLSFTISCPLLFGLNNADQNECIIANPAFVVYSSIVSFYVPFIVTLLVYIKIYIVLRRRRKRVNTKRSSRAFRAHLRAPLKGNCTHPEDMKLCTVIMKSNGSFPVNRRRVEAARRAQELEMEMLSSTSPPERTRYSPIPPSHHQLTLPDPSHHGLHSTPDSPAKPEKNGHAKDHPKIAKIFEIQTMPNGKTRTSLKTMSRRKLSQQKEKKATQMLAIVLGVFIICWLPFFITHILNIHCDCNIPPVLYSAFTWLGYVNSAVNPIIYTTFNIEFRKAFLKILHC

[6] = tested on: catalepsy; test: Catalepsy (horizontal bar); type: in vivo; details: up to 60 mg/kg in mice
From the text: The front paws of the animal were placed on a horizontal bar. Control animals quickly moved off the bar. Cataleptic animals held on to the bar for up to 15 seconds or more.

[7] = molecular target: T4, alpha-2-adrenoceptor (cloned in Sf9 cells) (Homo sapiens, UniProt P08913); test: Competitive binding at alpha-2-adrenoceptor ([3H]yohimbine); details: read-out: dissociation constant at alpha-2-adrenoceptor
T4 construct: purchased Research Biochemicals International (Natick, Mass.); host or cells: Sf9 cells
T4 sequence (P08913 1-465): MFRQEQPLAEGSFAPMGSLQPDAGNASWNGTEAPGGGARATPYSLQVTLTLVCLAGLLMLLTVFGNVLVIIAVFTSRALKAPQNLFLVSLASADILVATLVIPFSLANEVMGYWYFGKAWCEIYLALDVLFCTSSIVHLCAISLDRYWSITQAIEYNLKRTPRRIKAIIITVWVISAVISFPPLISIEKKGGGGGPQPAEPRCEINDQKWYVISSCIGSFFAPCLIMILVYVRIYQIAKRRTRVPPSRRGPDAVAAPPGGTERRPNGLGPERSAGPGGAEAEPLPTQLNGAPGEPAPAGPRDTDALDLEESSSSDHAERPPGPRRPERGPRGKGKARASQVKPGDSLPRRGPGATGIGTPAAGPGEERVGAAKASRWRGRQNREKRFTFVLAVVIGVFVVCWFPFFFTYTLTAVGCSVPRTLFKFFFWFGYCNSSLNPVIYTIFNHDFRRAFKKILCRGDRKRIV
Protocol: (§1) Human dopamine D1 receptors (in Sf9 cells or COS cells), human dopamine D2Long receptors (in Sf9 cells or CHO cells), human alpha-adrenoceptor-2A receptors, and human muscarinic M1 receptors, all expressed in Sf9 cells, were purchased from Research Biochemicals International (Natick, Mass.). The frozen membranes containing the receptors were directly suspended at approximately 100 μg protein/ml and the cell suspension was homogenized for 5 s (Polytron, setting 5) without any further washing.

[8] = molecular target: T5, cloned dopamine human D2Long receptor (Homo sapiens, UniProt P14416); test: Competitive binding at cloned dopamine D2 receptor ([3H]raclopride); details: 2 nM [3H]raclopride, read-out: dissociation constant, K, at D2 receptor
T5 construct: purchased Research Biochemicals International (Natick, Mass.); host or cells: Sf9 cells or CHO cells
T5 sequence (P14416 whole entry): as the sequence (P14416 whole entry) above
Protocol: as §1

[9] = molecular target: muscarinic cholinergic receptor (rat cortex tissue); test: Competitive binding at muscarinic receptor ([3H]QNB); details: read-out: dissociation constant at muscarinic cholinergic receptor
Protocol: as §2, §3, §4

[10] = molecular target: T6, serotonin-1A receptor (rat frontal cortex tissue) (Rattus norvegicus, UniProt P19327); test: Competitive binding at serotonin-1A receptor ([3H]8-OH-DPAT), rat tissue; details: read-out: dissociation constant at serotonin-1A receptor
T6 construct: tissue Pel-Freez (Rogers, Ark.); host or cells: rat frontal cerebral cortex
T6 sequence (P19327 1-422): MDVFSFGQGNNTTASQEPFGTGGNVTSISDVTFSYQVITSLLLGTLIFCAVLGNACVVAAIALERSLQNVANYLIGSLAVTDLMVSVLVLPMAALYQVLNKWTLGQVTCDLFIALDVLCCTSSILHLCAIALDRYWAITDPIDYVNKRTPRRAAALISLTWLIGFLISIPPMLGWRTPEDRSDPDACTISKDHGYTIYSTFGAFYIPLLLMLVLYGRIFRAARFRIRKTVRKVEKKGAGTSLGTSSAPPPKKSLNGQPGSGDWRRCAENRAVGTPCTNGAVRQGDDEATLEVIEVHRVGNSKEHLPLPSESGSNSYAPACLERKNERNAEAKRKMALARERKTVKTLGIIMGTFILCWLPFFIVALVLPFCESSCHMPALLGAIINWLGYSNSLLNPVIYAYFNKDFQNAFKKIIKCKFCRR
Protocol: as §2, §3, §4

[11] = molecular target: alpha-1-adrenoceptor (rat cortex); test: Competitive binding at alpha-1-adrenoceptor ([3H]prazosin); details: read-out: dissociation constant at alpha-1-adrenoceptor
Protocol: as §2, §3, §4

[12] = molecular target: T7, dopamine D2 receptors (Rattus norvegicus, UniProt P61169); test: In vivo D2 occupancy ([3H]raclopride, striatum); details: for receptor occupancy at 20 mg/kg: po, oral 20 mg/kg, rats
T7 construct: from tissue; host or cells: striatum of living Sprague-Dawley rats
T7 sequence (P61169 whole entry): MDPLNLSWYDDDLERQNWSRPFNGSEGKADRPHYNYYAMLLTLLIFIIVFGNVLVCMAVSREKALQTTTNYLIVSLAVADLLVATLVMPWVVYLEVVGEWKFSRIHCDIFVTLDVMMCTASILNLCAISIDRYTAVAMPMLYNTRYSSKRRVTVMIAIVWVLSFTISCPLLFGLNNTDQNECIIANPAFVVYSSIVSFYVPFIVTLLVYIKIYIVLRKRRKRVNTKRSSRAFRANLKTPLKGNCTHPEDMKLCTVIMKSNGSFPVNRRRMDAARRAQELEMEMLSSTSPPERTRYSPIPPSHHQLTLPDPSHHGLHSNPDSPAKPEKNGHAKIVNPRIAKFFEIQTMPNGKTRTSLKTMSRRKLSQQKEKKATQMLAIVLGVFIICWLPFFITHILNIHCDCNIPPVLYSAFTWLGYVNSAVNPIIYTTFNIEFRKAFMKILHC
Protocol: Sprague-Dawley rats (each 250 g) received an oral dose of test compound of 20 mg/kg by gavage, using 2 ml per gavage feeding. The test compound solution was prepared as follows: 20 mg of test compound was added to 8 ml saline (0.9% NaCl), followed by the addition of a few drops of 2% lactic acid and back titration of the suspension to pH 5 using 0.1 N NaOH. A fine particulate suspension was used for gavage. Each rat received 2 ml of the suspension over a period of 5 minutes. […] The D2 occupancy in the striatum was calculated.

[13] = molecular target: T8, histamine H1 receptor (rat cortex) (Rattus norvegicus, UniProt P31390); test: Competitive binding at histamine H1 receptor; details: read-out: dissociation constant at histamine H1 receptor
T8 construct: tissue Pel-Freez (Rogers, Ark.); host or cells: rat cortex
T8 sequence (P31390 whole entry): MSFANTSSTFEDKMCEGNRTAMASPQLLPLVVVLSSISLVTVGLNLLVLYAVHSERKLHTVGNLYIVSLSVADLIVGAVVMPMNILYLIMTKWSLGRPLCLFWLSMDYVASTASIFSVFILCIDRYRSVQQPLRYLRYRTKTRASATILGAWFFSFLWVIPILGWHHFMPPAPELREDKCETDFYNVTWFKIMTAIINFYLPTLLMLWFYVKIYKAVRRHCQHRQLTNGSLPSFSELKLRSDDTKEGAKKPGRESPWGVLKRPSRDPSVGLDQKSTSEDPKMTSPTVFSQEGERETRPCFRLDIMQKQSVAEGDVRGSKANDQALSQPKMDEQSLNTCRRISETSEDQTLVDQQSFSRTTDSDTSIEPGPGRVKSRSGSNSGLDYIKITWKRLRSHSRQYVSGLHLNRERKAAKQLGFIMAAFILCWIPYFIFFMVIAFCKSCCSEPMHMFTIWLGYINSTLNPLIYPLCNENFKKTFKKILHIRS
Protocol: as §3

SMILES	Kd [1]	Ki [2] [nM]	Ki [3] [nM]	Ki [4] [nM]	time at which dissociation from cloned D2 receptor was 50% completed [5] [s]	catalepsy [6]	Ki [7] [nM]	Ki [8] [nM]	melting point [°C]	Ki [9] [nM]	Ki [10] [nM]	Ki [11] [nM]	receptor occupancy at 20 mg/kg ([12]; 30 min) [%]	receptor occupancy at 20 mg/kg ([12]; 1 hour) [%]	receptor occupancy at 20 mg/kg ([12]; 2 hour) [%]	receptor occupancy at 20 mg/kg ([12]; 3 hour) [%]	receptor occupancy at 10 mg/kg ([12]; sc, 10 mg/kg subcutaneous, after one hour, Sprague Dawley rats) [%]	Ki [13] [nM]
NCCc1ccc(O)c(O)c1 [dopamine]	~1.75 nM and 1.75 nM	–	–	–	–	–	–	–	–	–	–	–	–	–	–	–	–	–
COc1cccc(C(=O)CCCN2CCC(O)(c3ccc(Cl)cc3)CC2)c1 [Example 2(a), 4-[4-(4-chlorophenyl)-4-hydroxypiperidin-1-yl]-1-(3-methoxyphenyl)butan-1-one]	–	200	2600	11000	23	did not result in any catalepsy	9500	140 ± 8	127 to 129	570	12000	1070	39	63	24	28	61	1140
COc1cccc(C(=O)CCCN2CCC(O)(c3ccccc3)CC2)c1 [Example 2(b), 4-[4-phenyl-4-hydroxypiperidin-1-yl]-1-(3-methoxyphenyl)butan-1-one, reference compound]	–	–	–	–	–	–	–	660	–	–	–	–	–	–	–	–	–	–
